Measurements as given in US20210356472A1, “METHODS AND COMPOSITIONS FOR DETECTION AND VISUALIZATION OF OXIDATIVE STRESS-INDUCED CARBONYLATION IN CELLS” (The Research Foundation for The State University of New York, priority 2020, published 2021).

Key:
A549 cells = assay: Detection of carbonylation in live cells with hydrazide fluorophores; assay type: cell-based
Protocol: At the end of the incubation period with the OSA or vehicle, 1 μL of 2 mM fluorophore (final concentrations: fluorophore=10 μM; DMSO=0.5%, v/v) is added to one corner of each well, taking care not to touch the bottom of the well with the pipet tip, and mixed well, by gently moving the chambered coverglass in a circular motion (clockwise as well as counter-clockwise). The coverglass is then returned to the cell culture incubator and incubated for 30-45 min. The difference in fluorescence between the control and the sample may be affected by the time of incubation with the fluorophore and the cell line. The incubation time is adjusted based on the cell line and oxidant used. The medium is discarded and 500 μL fresh medium added to each well. The coverglass is returned to the cell culture incubator for 3 min. The washing step is repeated two more times. The final wash medium is discarded, and 200 μL of fresh medium added, and the cells imaged by, e.g., confocal microscopy.
A549 cells were treated with vehicle (0.1% DMSO, v/v) or 100 μM menadione for 1 h, followed by 10 μM DCCH, BODIPYH, TxRH or TFCH for 30 min. The medium was discarded, and fresh medium was added to the cells and allowed to incubate for 5 min. After an additional round of medium change, the cells were imaged live using a confocal laser scanning microscope.
FIGS. 9A-9C show quantitative analysis of carbonyls in live cells in high throughput platform: A549 cells grown in standard media (control) or serum free media (serum starved) for ˜24 h were allowed to react with 10 μM hydrazide fluorophores for 1 h. Cells were washed and the emission of respective samples were recorded. The excitation (ex) and emission (em) wavelengths used are as follows: (FIG. 9A) DCCH (ex: 405 nm; em: 475 nm); (FIG. 9B) BODIPYH (ex: 488 nm; em: 530 nm); (FIG. 9C) TxRH (ex: 543 nm; em: 620 nm). Fluorescence in each sample was normalized to cell density. The graphs represent fluorescence of the serum starved samples relative to the control samples.
The cells were washed and imaged live using a confocal microscope. […]

[1] = Absorption and emission spectra of hydrazide fluorophores and their hydrazones with propanal; assay type: physicochemical; details: 10 mM PB, pH 7 containing 0.5% DMSO (v/v); for Hydrazide + propanal Abs max / Hydrazide + propanal Em max: corresponding hydrazone with propanal
Protocol: FIGS. 15A-15F show absorption (top) and emission (bottom) spectra of (FIGS. 15A, 15B) DCCH, (FIGS. 15C, 15D) BODIPYH, and (FIGS. 15E, 15F) TxRH and their corresponding hydrazones with propanal in 10 mM PB, pH 7 containing 0.5% DMSO (v/v). The excitation wavelengths used for obtaining the emission spectra are as follows: DCCH (ex: 405 nm), BODIPYH (ex: 450 nm), TxRH (543 nm). The arrow in the absorption spectra denotes the wavelength of the excitation laser used in the microscopy experiments.

lung cancer (A549) cells = assay: Cellular influx and efflux of TFCH in live A549 cells; assay type: cell-based
Protocol: (§1) Oxidized BSA was used as a model carbonylated biomolecule and TFCH's ability to detect it in an isolated system was tested. […] Next, the compatibility of TFCH for cell-based assays was established using lung cancer (A549) cells as a model cell line. TFCH's influx and efflux were achieved readily (<5 min) (FIGS. 21D and 21E). […] Importantly, given the turn-up property of the fluorophore, it was possible to identify carbonyls in live cells in the presence of unreacted fluorophores by a one-step high content screening (HCS)-compatible assay. Low concentration of the dye (2 µM) can detect carbonyls induced by serum starvation in live cells within 30 min (FIG. 22C). This single-step (no wash) assay format may be particularly suitable for screening molecules that have a propensity to induce cell detachment. Alternatively, excess fluorophore can be removed and the cells can be either imaged live (FIGS. 21D and 21E) or can be fixed and preserved for analysis at a later time Indeed, a similar spatial distribution and increase in carbonylation due to serum starvation was detected in both live (FIGS. 5, 19B) and fixed cells (fixed after fluorescent labeling in live cells). […] See also, (Vemula, Ni, & Fedorova, 2015).
(§2) FIGS. 21A-21B, Limit of detection (LOD) of TFCZ (hydrazone of TFCH and propanal) in A549 cell lysate. […] Emission spectra of the lysates were recorded by exciting the samples at 372 nm.

[2] = Reaction of TFCH with biomolecule ketones, cell-free systems versus living cells
Excerpt: It is believed that, in vivo, small molecules such as amino acids are involved in catalysis of the reaction.

oxidized BSA = oxidized BSA (Bos taurus, UniProt P02769); assay: Fluorescent labelling of oxidized BSA (SDS-PAGE); assay type: biochemical; details: isolated system, oxidized BSA as model carbonylated biomolecule
Protocol: as §1, §2

[3] = Fluorescence quantum yield; assay type: physicochemical; details: in water; 'believed to have'
Excerpt: The fluorescence “quantum yield” (φ) is the ratio of the number of photons emitted to the number absorbed. The term fluorescence quantum yield (φ) is a measure of the efficiency of photon emission through fluorescence, which is the loss of energy by a substance that has absorbed light via emission of a photon. In other words, the fluorescence quantum yield gives the probability of the excited state being deactivated by fluorescence rather than by another, non-radiative mechanism such as internal conversion or vibrational relaxation (non-radiative loss of energy as heat to the surroundings). The fluorescence intensity (F) is proportional to the amount of light absorbed, F=φ(Io-I), where lo is the intensity of the incident light and l is the intensity transmitted. […] When the concentration of the fluorescent compound is low, the fluorescence intensity is given by the equation: […].
TFCH is believed to have a quantum yield of >0.1 in water. […] “Solvent effect on absolute fluorescence quantum yield of rhodamine 6G determined using transient thermal lens technique.” Modern physics letters B 13, no. […] “Fluorescence lifetime of acridine in water-organic solvent mixtures.” Bulletin of the Chemical Society of Japan 42, no. […]

[4] = Photochemical comparison of TFCH with BzCH; assay type: physicochemical

Chain of oxidized BSA (P02769 25-607): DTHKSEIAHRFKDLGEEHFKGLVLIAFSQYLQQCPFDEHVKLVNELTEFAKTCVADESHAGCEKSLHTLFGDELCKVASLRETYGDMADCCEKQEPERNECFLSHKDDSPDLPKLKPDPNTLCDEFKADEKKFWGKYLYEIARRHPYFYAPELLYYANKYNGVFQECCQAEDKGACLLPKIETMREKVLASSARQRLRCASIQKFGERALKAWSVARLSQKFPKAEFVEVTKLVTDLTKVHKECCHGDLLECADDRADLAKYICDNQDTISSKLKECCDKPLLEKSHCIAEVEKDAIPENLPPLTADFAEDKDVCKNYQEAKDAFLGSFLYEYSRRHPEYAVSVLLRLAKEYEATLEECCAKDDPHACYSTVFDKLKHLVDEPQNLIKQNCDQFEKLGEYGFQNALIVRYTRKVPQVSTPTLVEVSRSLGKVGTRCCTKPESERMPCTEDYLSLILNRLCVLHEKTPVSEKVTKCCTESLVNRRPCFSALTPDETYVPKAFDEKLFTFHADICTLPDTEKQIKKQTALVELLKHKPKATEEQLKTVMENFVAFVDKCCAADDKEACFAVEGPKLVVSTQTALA

| SMILES | suitability as optical probe for carbonylation in live cells (A549 cells) | Hydrazide + propanal Abs max [1] [nm] | Hydrazide + propanal Em max [1] [nm] | Hydrazide Abs max [1] [nm] | Hydrazide Em max [1] [nm] | influx and efflux time (lung cancer (A549) cells) [min] | reaction with biomolecule ketones in cell-free systems relative to living cells [2] | labelling of oxidized BSA (oxidized BSA) | quantum yield [3] | photostability compared with BzCH [4] | absorption at 405 nm compared with BzCH ([4]; 405 nm) |
| --- | --- | --- | --- | --- | --- | --- | --- | --- | --- | --- | --- |
| Cc1cc(C)n2c1C=C1C=CC(CCC(=O)NN)=[N+]1[B-]2(F)F [BODIPYH] | found suitable as optical probes for carbonylation in live cells | 503 | 510 | 503 | 510 | – | – | – | – | – | – |
| CCN(CC)c1ccc2cc(C(=O)NN)c(=O)oc2c1 [DCCH, 7-(diethylamino)coumarin-3-carbohydrazide] | found suitable as optical probes for carbonylation in live cells | 439 | 481 | 429 | 479 | – | – | – | – | – | – |
| NNc1ccc2c(C(F)(F)F)cc(=O)oc2c1 [TFCH, 4-Trifluoromethyl-7-hydrazinyl-2H-chromen-2-one] | – | – | – | – | – | < 5 | eight hundred times slower | able to fluorescently label oxidized BSA and form a stable conjugate | > 0.1 | more photostable than BzCH | higher absorption at 405 nm than the BzCH |
| NNS(=O)(=O)c1ccc(C2=c3cc4c5c(c3Oc3c2cc2c6c3CCCN6CCC2)CCC[N+]=5CCC4)c(S(=O)(=O)[O-])c1 [TxRH] | found suitable as optical probes for carbonylation in live cells | 589 | 607 | 589 | 607 | – | – | – | – | – | – |
